According to PubChem BioAssay (NCI):
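The compound was tested at five concentrations on cells cultured in 96-well plates, with a 48-hour exposure period. GI50 marks 50% less growth. TGI: total growth inhibition.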

Experiments:
Assay in all cases: NCI anticancer screen, dose series, 48 h
[1] = system: A549 NSCLC
[2] = system: DU-145 prostate
[3] = system: HCT-15 colon
[4] = system: LOX IMVI melanoma
[5] = system: MCF7 breast
[6] = system: NCI-H226 lung
[7] = system: OVCAR-3 ovarian
[8] = system: SK-MEL-2 melanoma
[9] = system: SW-620 colon
[10] = system: HL-60(TB) leukemia

Row | SMILES | TGI [1] [µM] | TGI [2] [µM] | TGI [3] [µM] | TGI [4] [µM] | TGI [5] [µM] | TGI [6] [µM] | TGI [7] [µM] | TGI [8] [µM] | TGI [9] [µM] | TGI [10] [µM] | GI50 [2] [µM] | GI50 [3] [µM] | GI50 [10] [µM] | GI50 [5] [µM] | GI50 [8] [µM]
1 | CN(C)CCNc1ccc2c(=O)n(CCN(C)C)c(=O)n3c4ccc(O)cc4c(=O)c1c23 | 1.47 | 0.0781 | 4.35 | 0.217 | 0.634 | 0.322 | 1.29 | 0.602 | 0.67 |  |  |  |  |  | 
2 | O=C(Nc1ccccc1)N(C1=NCC(CI)S1)c1ccc(F)c(F)c1 (centres undefined) | > 100 | > 100 | > 100 | 34 | > 100 |  | > 100 | 60.5 | > 100 | 79.4 |  |  |  |  | 
3 | CCO/C(=N/S(=O)(=O)C(F)(F)F)N(C(C)C)C(C)C | > 100 | > 100 | > 100 | > 100 | > 100 |  |  | > 100 | > 100 | > 100 |  |  |  |  | 
4 | CNC(C)(C)Cc1ccc(Cl)cc1 | > 100 |  |  | > 100 |  |  | > 100 | > 100 | > 100 |  |  |  |  |  | 
5 | S=C1c2ccc(Cl)cc2-n2cnnc2C2CSCN12 (centres undefined) | > 100 | > 100 | > 100 | > 100 | > 100 | > 100 | > 100 | > 100 | > 100 |  |  |  |  |  | 
6 | CC1=NNC(=O)C1C1C(=O)NN=C(c2c[nH]c3ccccc23)C1Br (centres undefined) | > 100 | > 100 | > 100 | > 100 |  | > 100 | > 100 | 84.8 | > 100 | > 100 |  |  |  |  | 
7 | N#CCCN(CCC#N)c1ccc(/C=C2\N=C(c3ccccc3)N(c3ccc(F)cc3)C2=O)cc1 | > 100 | > 100 | > 100 | > 100 | > 100 | > 100 | > 100 | > 100 | > 100 |  |  |  |  |  | 
8 | O=C(/C=C(/C=C/c1ccc2[nH]ccc2c1)OB(F)F)/C=C/c1ccc2[nH]ccc2c1 |  | 4.2 | 4.43 |  | 15 |  |  | 86.2 |  | > 100 | 1.64 | 0.653 | 1.88 | 0.376 | 4.6
9 | CC(C)(C)c1ccccc1N1C(=O)c2ccc3c4c(ccc(c24)C1=O)N(c1ccccc1C(C)(C)C)C3=O | > 100 | > 100 | > 100 |  | > 100 |  | > 100 | > 100 | > 100 |  |  |  |  |  | 
10 | COc1ccc(N2CC(=O)N(C(=O)COc3ccc(OCC(=O)N4C(=O)CN(c5ccc(OC)cc5)C4=S)cc3)C2=S)cc1 | > 100 | > 100 | > 100 |  | > 100 | > 100 |  | > 100 | > 100 |  |  |  |  |  | 
11 | Cc1cc(C)nc(NS(=O)(=O)c2ccc(NC(=O)c3c4ccccc4nc4ccccc34)cc2)n1 | > 100 | > 100 | > 100 | > 100 | > 100 | > 100 | > 100 | > 100 | > 100 |  |  |  |  |  | 
12 | C[C@H](c1ccccc1)N1C(=O)[C@@H](O)[C@H]1[C@H](CO)OCc1ccccc1 | > 100 | > 100 | > 100 | > 100 | > 100 | > 100 | > 100 | > 100 | > 100 |  |  |  |  |  | 
13 | O=C(Nc1ccc(N2C(=O)CSC2c2ccccc2O)cc1)c1ccc(N2C(=O)CSC2c2ccccc2O)cc1 (centres undefined) | > 100 | > 100 | > 100 | > 100 | > 100 |  | > 100 | > 100 | > 100 |  |  |  |  |  | 
14 | CC(=O)Nc1ccc2c(C)c3c(nc2n1)[nH]c1ccccc13 | > 100 | > 100 | 64.5 | 37.9 | > 100 | 67.9 | 65.5 | 55.5 | > 100 |  |  |  |  |  | 
15 | CSc1ncc2c(n1)C(C#N)C1Sc3ccccc3N1C2=O (centres undefined) | > 100 | > 100 | > 100 | > 100 |  | > 100 | > 100 |  | > 100 |  |  |  |  |  | 
16 | Nc1n(CC(=O)c2ccccc2)nc2sc(-c3ccccc3)n[n+]12 | 90.6 | 87.7 | > 100 | > 100 | > 100 | 52.2 | 38.9 | > 100 | 36.6 |  |  |  |  |  | 
17 | CC(=O)NC1C(OCc2ccccc2)OC(CO)C(O)C1OCC(=O)N1CCCC1C(=O)N[C@@H](CCC(=O)NCCCCNc1c2ccccc2nc2cccc([N+](=O)[O-])c12)C(N)=O (some centres undefined) | 37.8 | > 100 | > 100 |  | 53.8 | > 100 | 61.9 | 32.7 | 65.7 |  |  |  |  |  | 
18 | CCc1n[nH]c(=O)n1CCCCCCCCCCCCn1c(CC)n[nH]c1=O | > 100 |  | > 100 | 99 | > 100 | > 100 | > 100 | > 100 | > 100 |  |  |  |  |  | 
